Test results published in US4178284A, “Octapeptides” (American Home Products Corporation, priority 1978, dated 1979).

Tests used:
analgesia [1] = conditions: Loh et al.; cited from earlier work
analgesia [2] = conditions: Tseng et al.; cited from earlier work
[3] = test system: growth hormone and prolactin release; conditions: rat; Dupont et al., Rivier et al.; cited from earlier work
growth hormone release = assay: growth hormone release, serum concentration, procedure of Lien et al. Febs. Letters 88 208-210 (1978); type: in vivo; conditions: 2 milligrams per kilogram; control 55±8 ng/ml; p<0.05
Experimental: Illustrative of the growth hormone releasing ability of the compounds of this invention is the activity of des-(66-88)-β-endorphin, representative of the other compounds, which at 2 milligrams per kilogram caused growth hormone release to result in a serum concentration of 380±124 ng/ml. as related to the control concentration of 55±8 ng/ml. at a confidence level of p<0.05, following the procedure of Lien et al. Febs. Letters 88 208-210 (1978).

analgesia [4] = assay: analgesia on intracerebroventricular administration; type: in vivo

| Substance | analgesic activity by intracerebral administration (analgesia [1]) | analgesic activity by intravenous injection (analgesia [2]) | growth hormone release stimulation [3] | prolactin release stimulation [3] | growth hormone serum concentration (growth hormone release) [ng/mL] | intracerebroventricular analgesic activity (analgesia [4]) |
| --- | --- | --- | --- | --- | --- | --- |
| H-Tyr-Gly-Gly-Phe-Met-Thr-Ser-Glu-Lys-Ser-Gln-Thr-Pro-Leu-Val-Thr-Leu-Phe-Lys-Asn-Ala-Ile-Ile-Lys-Asn-Ala-His-Lys-Lys-Gly-Gln-OH (H-YGGFMTSEKSQTPLVTLFKNAIIKNAHKKGQ-OH) [β-Endorphin, naturally occurring peptide isolated by Bradbury et al. and Li et al] | potent analgesic activity | potent analgesic activity | growth hormone and prolactin release stimulation | growth hormone and prolactin release stimulation |  |  |
| L-Tyrosyl-glycyl-glycyl-L-phenylalanyl-L-methionyl-L-lysyl-glycyl-L-glutamine diacetate [des-(66-88)-β-endorphin] |  |  |  |  | 380 ± 124 | intracerebroventricular analgesic agents |
